Reference: PubChem BioAssay (NCI)
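96-well plates; 48 h exposure; 5 concentrations. Endpoints by linear interpolation between flanking doses. Not reached: highest tested concentration assigned. TGI denotes the concentration required for complete inhibition of growth.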

Key:
Experiment in all cases: inhibition of tumour cell growth, NCI panel, 48 h
SF-295 CNS = system: SF-295 CNS
UACC-62 melanoma = system: UACC-62 melanoma
SK-MEL-28 melanoma = system: SK-MEL-28 melanoma
IGROV1 ovarian = system: IGROV1 ovarian
COLO 205 colon = system: COLO 205 colon
NCI-H522 lung = system: NCI-H522 lung
CCRF-CEM leukemia = system: CCRF-CEM leukemia
SK-MEL-5 melanoma = system: SK-MEL-5 melanoma
MALME-3M melanoma = system: MALME-3M melanoma
A549 NSCLC = system: A549 NSCLC
SW-620 colon = system: SW-620 colon
HCC-2998 colon = system: HCC-2998 colon
U251 CNS = system: U251 CNS
A498 renal = system: A498 renal
ACHN renal = system: ACHN renal
CAKI-1 renal = system: CAKI-1 renal
OVCAR-8 ovarian = system: OVCAR-8 ovarian
DLD-1 colon = system: DLD-1 colon
EKVX NSCLC = system: EKVX NSCLC
HOP-62 NSCLC = system: HOP-62 NSCLC
SF-268 CNS = system: SF-268 CNS
SK-MEL-2 melanoma = system: SK-MEL-2 melanoma
HL-60(TB) leukemia = system: HL-60(TB) leukemia
MOLT-4 leukemia = system: MOLT-4 leukemia
OVCAR-3 ovarian = system: OVCAR-3 ovarian
HT29 colon = system: HT29 colon
M14 melanoma = system: M14 melanoma
NCI-H23 lung = system: NCI-H23 lung
LXFL 529 NSCLC = system: LXFL 529 NSCLC
KM20L2 colon = system: KM20L2 colon
SNB-75 CNS = system: SNB-75 CNS
SR leukemia = system: SR leukemia
HOP-92 NSCLC = system: HOP-92 NSCLC
LOX IMVI melanoma = system: LOX IMVI melanoma
DMS 114 small cell lung = system: DMS 114 small cell lung
SF-539 CNS = system: SF-539 CNS
SNB-19 CNS = system: SNB-19 CNS
HOP-18 NSCLC = system: HOP-18 NSCLC
XF 498 CNS = system: XF 498 CNS
RXF 393 renal = system: RXF 393 renal
SN12C renal = system: SN12C renal
NCI-H460 lung = system: NCI-H460 lung
RPMI-8226 leukemia = system: RPMI-8226 leukemia
UO-31 renal = system: UO-31 renal
NCI-H226 lung = system: NCI-H226 lung
DMS 273 small cell lung = system: DMS 273 small cell lung
RXF-631 renal = system: RXF-631 renal
OVCAR-5 ovarian = system: OVCAR-5 ovarian
HCT-15 colon = system: HCT-15 colon
TK-10 renal = system: TK-10 renal
SK-OV-3 ovarian = system: SK-OV-3 ovarian
786-0 renal = system: 786-0 renal
K-562 leukemia = system: K-562 leukemia
KM12 colon = system: KM12 colon
UACC-257 melanoma = system: UACC-257 melanoma
HCT-116 colon = system: HCT-116 colon
SNB-78 CNS = system: SNB-78 CNS
M19-MEL melanoma = system: M19-MEL melanoma
OVCAR-4 ovarian = system: OVCAR-4 ovarian

N#CC1=C(Cl)NC(Cl)=C(C#N)C1c1ccc(Cl)cc1
TGI (SF-295 CNS): 53.9 µM | TGI (UACC-62 melanoma): 30.5 µM | TGI (SK-MEL-28 melanoma): 41.4 µM | TGI (IGROV1 ovarian): 32.9 µM | TGI (COLO 205 colon): 30.3 µM | TGI (NCI-H522 lung): 25.8 µM | TGI (CCRF-CEM leukemia): 65.8 µM | TGI (SK-MEL-5 melanoma): 30.7 µM | TGI (MALME-3M melanoma): 38.7 µM | TGI (A549 NSCLC): 37.1 µM | TGI (SW-620 colon): 26.3 µM | TGI (HCC-2998 colon): 33.2 µM | TGI (U251 CNS): 29.8 µM | TGI (A498 renal): 81.3 µM | TGI (ACHN renal): 34.2 µM | TGI (CAKI-1 renal): 43.9 µM | TGI (OVCAR-8 ovarian): 29.7 µM | TGI (DLD-1 colon): 32 µM | TGI (EKVX NSCLC): 39.4 µM | TGI (HOP-62 NSCLC): 33.1 µM | TGI (SF-268 CNS): 33 µM | TGI (SK-MEL-2 melanoma): 27.5 µM | TGI (HL-60(TB) leukemia): 45.4 µM | TGI (MOLT-4 leukemia): 39.3 µM | TGI (OVCAR-3 ovarian): 27 µM | TGI (HT29 colon): 30.1 µM | TGI (M14 melanoma): 30.5 µM | TGI (NCI-H23 lung): 32.8 µM | TGI (LXFL 529 NSCLC): 29.9 µM | TGI (KM20L2 colon): 39.3 µM | TGI (SNB-75 CNS): 28.3 µM | TGI (SR leukemia): 44.1 µM | TGI (HOP-92 NSCLC): 30.5 µM | TGI (LOX IMVI melanoma): 29.6 µM | TGI (DMS 114 small cell lung): 28.8 µM | TGI (SF-539 CNS): 33.2 µM | TGI (SNB-19 CNS): 31 µM | TGI (HOP-18 NSCLC): 33.6 µM | TGI (XF 498 CNS): 27.4 µM | TGI (RXF 393 renal): 32.9 µM | TGI (SN12C renal): 30.9 µM | TGI (NCI-H460 lung): 31.5 µM | TGI (RPMI-8226 leukemia): 37.5 µM | TGI (UO-31 renal): 30.8 µM | TGI (NCI-H226 lung): 44.7 µM | TGI (DMS 273 small cell lung): 31 µM | TGI (RXF-631 renal): 29.5 µM | TGI (OVCAR-5 ovarian): > 100 µM | TGI (HCT-15 colon): 29 µM | TGI (TK-10 renal): 32.5 µM | TGI (SK-OV-3 ovarian): 31.7 µM | TGI (786-0 renal): 29.2 µM | TGI (K-562 leukemia): 28.5 µM | TGI (KM12 colon): 33 µM | TGI (UACC-257 melanoma): 34.7 µM | TGI (HCT-116 colon): 34.4 µM | TGI (SNB-78 CNS): 72.5 µM

COC(=O)C(C(=O)C(=O)Nc1nc(=S)[nH][nH]1)c1csc(N)n1 (centres undefined)
TGI (SF-295 CNS): > 100 µM | TGI (UACC-62 melanoma): > 100 µM | TGI (SK-MEL-28 melanoma): > 100 µM | TGI (M19-MEL melanoma): > 100 µM | TGI (IGROV1 ovarian): > 100 µM | TGI (COLO 205 colon): > 100 µM | TGI (NCI-H522 lung): > 100 µM | TGI (CCRF-CEM leukemia): > 100 µM | TGI (SK-MEL-5 melanoma): > 100 µM | TGI (MALME-3M melanoma): > 100 µM | TGI (A549 NSCLC): > 100 µM | TGI (SW-620 colon): > 100 µM | TGI (HCC-2998 colon): > 100 µM | TGI (U251 CNS): > 100 µM | TGI (A498 renal): > 100 µM | TGI (ACHN renal): > 100 µM | TGI (OVCAR-4 ovarian): > 100 µM | TGI (CAKI-1 renal): > 100 µM | TGI (OVCAR-8 ovarian): > 100 µM | TGI (DLD-1 colon): > 100 µM | TGI (EKVX NSCLC): > 100 µM | TGI (HOP-62 NSCLC): > 100 µM | TGI (SF-268 CNS): > 100 µM | TGI (SK-MEL-2 melanoma): > 100 µM | TGI (HL-60(TB) leukemia): > 100 µM | TGI (MOLT-4 leukemia): > 100 µM | TGI (OVCAR-3 ovarian): > 100 µM | TGI (HT29 colon): > 100 µM | TGI (M14 melanoma): > 100 µM | TGI (NCI-H23 lung): > 100 µM | TGI (LXFL 529 NSCLC): > 100 µM | TGI (KM20L2 colon): > 100 µM | TGI (SNB-75 CNS): > 100 µM | TGI (SR leukemia): > 100 µM | TGI (LOX IMVI melanoma): > 100 µM | TGI (SF-539 CNS): > 100 µM | TGI (SNB-19 CNS): > 100 µM | TGI (HOP-18 NSCLC): > 100 µM | TGI (XF 498 CNS): > 100 µM | TGI (RXF 393 renal): > 100 µM | TGI (SN12C renal): > 100 µM | TGI (NCI-H460 lung): > 100 µM | TGI (RPMI-8226 leukemia): > 100 µM | TGI (UO-31 renal): > 100 µM | TGI (NCI-H226 lung): > 100 µM | TGI (DMS 273 small cell lung): > 100 µM | TGI (RXF-631 renal): > 100 µM | TGI (OVCAR-5 ovarian): > 100 µM | TGI (HCT-15 colon): > 100 µM | TGI (TK-10 renal): > 100 µM | TGI (SK-OV-3 ovarian): > 100 µM | TGI (786-0 renal): > 100 µM | TGI (K-562 leukemia): > 100 µM | TGI (KM12 colon): > 100 µM | TGI (UACC-257 melanoma): > 100 µM | TGI (HCT-116 colon): > 100 µM | TGI (SNB-78 CNS): > 100 µM
